ChEMBL document CHEMBL1201862, “PubChem BioAssay data set” (2004)
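Assay format: 96-well plates, 48-hour exposure. Abbreviation: GI50, concentration required for 50% inhibition of growth.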 The source made the active and inactive calls. Rule as the data show it: active = GI50 up to about 1.1 µM and inactive = higher.

Tests used:
Assay in all cases: DTP human tumour cell line panel, 48 h
T47D = test system: T47D
UACC-257 = test system: UACC-257
OVCAR-3 = test system: OVCAR-3
U-251 = test system: U-251
SK-MEL-5 = test system: SK-MEL-5
MOLT-4 = test system: MOLT-4
IGROV-1 = test system: IGROV-1
SK-OV-3 = test system: SK-OV-3
TK-10 = test system: TK-10
SNB-75 = test system: SNB-75
BT-549 = test system: BT-549
NCI-H226 = test system: NCI-H226
SN12C = test system: SN12C
A549 = test system: A549
Hs-578T = test system: Hs-578T
MDA-N = test system: MDA-N
A498 = test system: A498
LOX IMVI = test system: LOX IMVI
MDA-MB-231 = test system: MDA-MB-231
HCT-15 = test system: HCT-15
OVCAR-4 = test system: OVCAR-4
HOP-62 = test system: HOP-62
RPMI-8226 = test system: RPMI-8226
COLO 205 = test system: COLO 205
UACC-62 = test system: UACC-62
K562 = test system: K562
786-0 = test system: 786-0
SF-295 = test system: SF-295
PC-3 = test system: PC-3
KM12 = test system: KM12
SNB-19 = test system: SNB-19
SF-268 = test system: SF-268
SK-MEL-28 = test system: SK-MEL-28
OVCAR-5 = test system: OVCAR-5
HOP-92 = test system: HOP-92
NCI-H23 = test system: NCI-H23
MDA-MB-435 = test system: MDA-MB-435
RXF 393 = test system: RXF 393
HT-29 = test system: HT-29
CCRF-CEM = test system: CCRF-CEM
CAKI-1 = test system: CAKI-1
M14 = test system: M14
SW-620 = test system: SW-620
SK-MEL-2 = test system: SK-MEL-2
HCT-116 = test system: HCT-116
NCI/ADR-RES = test system: NCI/ADR-RES
DU-145 = test system: DU-145
OVCAR-8 = test system: OVCAR-8
UO-31 = test system: UO-31
NCI-H522 = test system: NCI-H522
SR = test system: SR
HCC 2998 = test system: HCC 2998
ACHN = test system: ACHN
MCF7 = test system: MCF7
EKVX = test system: EKVX
HL-60 = test system: HL-60
Malme-3M = test system: Malme-3M
SF-539 = test system: SF-539
NCI-H460 = test system: NCI-H460

O=S(=O)(O)c1cc(S(=O)(=O)O)c2c(/N=N/c3ccccc3)c(O)ccc2c1
GI50 (T47D): > 100 µM (inactive) | GI50 (UACC-257): > 100 µM (inactive) | GI50 (OVCAR-3): > 100 µM (inactive) | GI50 (U-251): > 100 µM (inactive) | GI50 (SK-MEL-5): > 100 µM (inactive) | GI50 (MOLT-4): > 100 µM (inactive) | GI50 (IGROV-1): > 100 µM (inactive) | GI50 (SK-OV-3): > 100 µM (inactive) | GI50 (TK-10): > 100 µM (inactive) | GI50 (SNB-75): > 100 µM (inactive) | GI50 (BT-549): > 100 µM (inactive) | GI50 (NCI-H226): > 100 µM (inactive) | GI50 (SN12C): > 100 µM (inactive) | GI50 (A549): > 100 µM (inactive) | GI50 (Hs-578T): > 100 µM (inactive) | GI50 (MDA-N): > 100 µM (inactive) | GI50 (A498): > 100 µM (inactive) | GI50 (LOX IMVI): > 100 µM (inactive) | GI50 (MDA-MB-231): > 100 µM (inactive) | GI50 (HCT-15): > 100 µM | GI50 (OVCAR-4): > 100 µM (inactive) | GI50 (HOP-62): > 100 µM (inactive) | GI50 (RPMI-8226): > 100 µM (inactive) | GI50 (COLO 205): > 100 µM (inactive) | GI50 (UACC-62): > 100 µM (inactive) | GI50 (K562): > 100 µM (inactive) | GI50 (786-0): > 100 µM (inactive) | GI50 (SF-295): > 100 µM (inactive) | GI50 (PC-3): > 100 µM (inactive) | GI50 (KM12): > 100 µM (inactive) | GI50 (SNB-19): > 100 µM (inactive) | GI50 (SF-268): > 100 µM (inactive) | GI50 (SK-MEL-28): > 100 µM (inactive) | GI50 (OVCAR-5): > 100 µM (inactive) | GI50 (HOP-92): > 100 µM (inactive) | GI50 (NCI-H23): > 100 µM (inactive) | GI50 (MDA-MB-435): > 100 µM (inactive) | GI50 (RXF 393): > 100 µM (inactive) | GI50 (HT-29): > 100 µM (inactive) | GI50 (CCRF-CEM): > 100 µM (inactive) | GI50 (CAKI-1): > 100 µM (inactive) | GI50 (M14): > 100 µM (inactive) | GI50 (SW-620): > 100 µM (inactive) | GI50 (SK-MEL-2): > 100 µM (inactive) | GI50 (HCT-116): > 100 µM (inactive) | GI50 (NCI/ADR-RES): > 100 µM (inactive) | GI50 (DU-145): > 100 µM (inactive) | GI50 (OVCAR-8): > 100 µM (inactive) | GI50 (UO-31): > 100 µM (inactive)

ClC1=C(Cc2ccccc2)Cc2ccc3c(c21)CCC3
GI50 (T47D): 18.5 µM (inactive) | GI50 (UACC-257): 23.1 µM (inactive) | GI50 (OVCAR-3): 36.4 µM (inactive) | GI50 (U-251): 19.1 µM (inactive) | GI50 (SK-MEL-5): 20.8 µM (inactive) | GI50 (MOLT-4): 19.1 µM (inactive) | GI50 (IGROV-1): 41.9 µM (inactive) | GI50 (SK-OV-3): 83.6 µM (inactive) | GI50 (TK-10): 72.3 µM (inactive) | GI50 (NCI-H522): 17.7 µM (inactive) | GI50 (SNB-75): > 10 µM (inactive) | GI50 (SR): 18.3 µM (inactive) | GI50 (BT-549): 31.1 µM (inactive) | GI50 (NCI-H226): 23 µM (inactive) | GI50 (HCC 2998): 20 µM (inactive) | GI50 (SN12C): 34.4 µM (inactive) | GI50 (A549): 33.6 µM (inactive) | GI50 (Hs-578T): 23.2 µM (inactive) | GI50 (MDA-N): 36.6 µM (inactive) | GI50 (LOX IMVI): 17.9 µM (inactive) | GI50 (MDA-MB-231): 21.8 µM (inactive) | GI50 (ACHN): 29.9 µM (inactive) | GI50 (HCT-15): 31.3 µM | GI50 (MCF7): 18.9 µM (inactive) | GI50 (OVCAR-4): 9.23 µM (inactive) | GI50 (HOP-62): 34.1 µM (inactive) | GI50 (EKVX): 39.3 µM (inactive) | GI50 (HL-60): 19.7 µM (inactive) | GI50 (RPMI-8226): 29.4 µM (inactive) | GI50 (COLO 205): 13.4 µM (inactive) | GI50 (UACC-62): 27.6 µM (inactive) | GI50 (K562): 31.1 µM (inactive) | GI50 (786-0): 30.4 µM (inactive) | GI50 (SF-295): 29.4 µM (inactive) | GI50 (PC-3): 32.3 µM (inactive) | GI50 (KM12): 18.3 µM (inactive) | GI50 (SNB-19): 21.5 µM (inactive) | GI50 (SF-268): 33.2 µM (inactive) | GI50 (Malme-3M): 24.2 µM (inactive) | GI50 (SK-MEL-28): 66.5 µM (inactive) | GI50 (OVCAR-5): 61.2 µM (inactive) | GI50 (HOP-92): 99.8 µM (inactive) | GI50 (NCI-H23): 19.7 µM (inactive) | GI50 (MDA-MB-435): 28 µM (inactive) | GI50 (RXF 393): 19.7 µM (inactive) | GI50 (HT-29): 22.6 µM (inactive) | GI50 (SF-539): 74.3 µM (inactive) | GI50 (CCRF-CEM): 27.9 µM (inactive) | GI50 (CAKI-1): 41.4 µM (inactive) | GI50 (M14): > 100 µM (inactive) | GI50 (SW-620): 25.7 µM (inactive) | GI50 (HCT-116): 28.3 µM (inactive) | GI50 (DU-145): 48.5 µM (inactive) | GI50 (OVCAR-8): 36.8 µM (inactive) | GI50 (UO-31): 21.8 µM (inactive)

C=CCCCC1CCCNC1=S (stereo unspecified)
GI50 (T47D): > 100 µM (inactive) | GI50 (UACC-257): > 100 µM (inactive) | GI50 (OVCAR-3): > 100 µM (inactive) | GI50 (U-251): > 100 µM (inactive) | GI50 (SK-MEL-5): > 100 µM (inactive) | GI50 (MOLT-4): > 100 µM (inactive) | GI50 (IGROV-1): > 100 µM (inactive) | GI50 (SK-OV-3): > 100 µM (inactive) | GI50 (NCI-H460): > 100 µM (inactive) | GI50 (TK-10): > 100 µM (inactive) | GI50 (NCI-H522): > 100 µM (inactive) | GI50 (SNB-75): > 100 µM (inactive) | GI50 (BT-549): > 100 µM (inactive) | GI50 (NCI-H226): > 100 µM (inactive) | GI50 (HCC 2998): > 100 µM (inactive) | GI50 (SN12C): > 100 µM (inactive) | GI50 (A549): > 100 µM (inactive) | GI50 (Hs-578T): > 100 µM (inactive) | GI50 (MDA-N): > 100 µM (inactive) | GI50 (A498): > 100 µM (inactive) | GI50 (MDA-MB-231): > 100 µM (inactive) | GI50 (ACHN): > 100 µM (inactive) | GI50 (HCT-15): > 100 µM | GI50 (MCF7): > 100 µM (inactive) | GI50 (OVCAR-4): > 100 µM (inactive) | GI50 (HOP-62): > 100 µM (inactive) | GI50 (EKVX): > 100 µM (inactive) | GI50 (RPMI-8226): > 100 µM (inactive) | GI50 (UACC-62): > 100 µM (inactive) | GI50 (K562): > 100 µM (inactive) | GI50 (786-0): > 100 µM (inactive) | GI50 (SF-295): > 100 µM (inactive) | GI50 (PC-3): > 100 µM (inactive) | GI50 (KM12): > 100 µM (inactive) | GI50 (SNB-19): > 100 µM (inactive) | GI50 (SF-268): > 100 µM (inactive) | GI50 (SK-MEL-28): > 100 µM (inactive) | GI50 (OVCAR-5): > 100 µM (inactive) | GI50 (HOP-92): > 100 µM (inactive) | GI50 (NCI-H23): > 100 µM (inactive) | GI50 (MDA-MB-435): > 100 µM (inactive) | GI50 (RXF 393): > 100 µM (inactive) | GI50 (HT-29): > 100 µM (inactive) | GI50 (SF-539): > 100 µM (inactive) | GI50 (CAKI-1): > 100 µM (inactive) | GI50 (M14): > 100 µM (inactive) | GI50 (SW-620): > 100 µM (inactive) | GI50 (SK-MEL-2): > 100 µM (inactive) | GI50 (HCT-116): > 100 µM (inactive) | GI50 (DU-145): > 100 µM (inactive) | GI50 (OVCAR-8): > 100 µM (inactive) | GI50 (UO-31): > 100 µM (inactive)
